Assays:
[1] = target: T1, Recombinant ROCK1 (amino acids 1-477) (Homo sapiens, UniProt Q13464); experiment: ROCK inhibition assay, LANCE Ultra TR-FRET kinase assay (ROCK1); assay type: biochemical; details: 1 μM ATP, 50 nM ULight-CREBtide substrate
T1 construct: Recombinant ROCK1 (amino acids 1-477); by word order, ROCK1 from Carna Biosciences
Procedure, shortened: (§1)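 LANCE Ultra TR-FRET kinase assay with recombinant ROCK1 (aa 1-477) or ROCK2 (aa 5-554), 50 nM ULight-CREBtide and ATP at 1 μM (ROCK1) or 4 μM (ROCK2) in HEPES pH 7.5 with MgCl2, 1 h at room temperature. EDTA stop with Eu anti-phospho-CREB Ser133 antibody; 665/615 nm read gives IC50.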

[2] = target: T2, Recombinant ROCK2 (amino acids 5-554) (Homo sapiens, UniProt O75116); experiment: ROCK inhibition assay, LANCE Ultra TR-FRET kinase assay (ROCK2); assay type: biochemical; details: 4 μM ATP, 50 nM ULight-CREBtide substrate
T2 construct: ROCK2 (amino acids 5-554); by word order, ROCK2 from SignalChem
T2 sequence (O75116 5-554): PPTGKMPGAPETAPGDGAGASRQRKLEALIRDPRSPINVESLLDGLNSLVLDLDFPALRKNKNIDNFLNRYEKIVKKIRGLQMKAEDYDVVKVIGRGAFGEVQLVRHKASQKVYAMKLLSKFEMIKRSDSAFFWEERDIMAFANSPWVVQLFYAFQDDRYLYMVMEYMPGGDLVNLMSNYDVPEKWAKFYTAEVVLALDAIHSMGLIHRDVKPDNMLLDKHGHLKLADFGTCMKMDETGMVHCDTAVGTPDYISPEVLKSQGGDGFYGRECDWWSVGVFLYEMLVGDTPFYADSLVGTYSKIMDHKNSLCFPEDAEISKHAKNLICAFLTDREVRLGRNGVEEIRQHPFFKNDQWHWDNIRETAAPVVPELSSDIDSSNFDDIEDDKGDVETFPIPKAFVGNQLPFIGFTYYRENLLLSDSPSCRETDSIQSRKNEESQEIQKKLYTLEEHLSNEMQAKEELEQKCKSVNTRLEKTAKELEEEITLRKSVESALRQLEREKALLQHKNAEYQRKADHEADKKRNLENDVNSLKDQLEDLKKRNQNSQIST
Procedure, shortened: as §1

T1 sequence (Q13464 1-477): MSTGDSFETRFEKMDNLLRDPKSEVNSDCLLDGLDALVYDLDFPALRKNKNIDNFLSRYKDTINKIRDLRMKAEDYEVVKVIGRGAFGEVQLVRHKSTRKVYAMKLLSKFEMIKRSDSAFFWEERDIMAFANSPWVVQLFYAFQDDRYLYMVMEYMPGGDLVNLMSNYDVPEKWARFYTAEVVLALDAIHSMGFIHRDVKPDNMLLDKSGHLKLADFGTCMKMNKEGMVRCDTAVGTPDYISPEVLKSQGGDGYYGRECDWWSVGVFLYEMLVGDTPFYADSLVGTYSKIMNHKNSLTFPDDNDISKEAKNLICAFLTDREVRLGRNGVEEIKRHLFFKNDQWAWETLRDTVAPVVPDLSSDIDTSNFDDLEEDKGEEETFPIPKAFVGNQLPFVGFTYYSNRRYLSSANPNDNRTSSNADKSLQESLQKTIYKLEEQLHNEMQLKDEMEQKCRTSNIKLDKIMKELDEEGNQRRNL

SMILES	IC50 [1]	IC50 [2]
Cc1nocc1-c1ccc2c(=O)n(Cc3cc(F)cc(C(=O)Nc4ccc5c(c4)CN(C4CC4)CC5)c3)ccc2c1 [Compound 161]	11 to 100 nM	< 10 nM
Cc1nocc1-c1ccc2c(=O)n(Cc3cc(F)cc(C(=O)Nc4ccc5c(c4)CCNC5)c3)ccc2c1 [Compound 162]	< 10 nM	< 10 nM
Cc1nocc1-c1ccc2c(=O)n(Cc3cc(F)cc(C(=O)Nc4ccc5c(c4)CCN(C)C5)c3)ccc2c1 [Compound 163]	< 10 nM	< 10 nM
Nc1cc(-c2ccc3c(=O)n(Cc4cccc(C(=O)NCc5ccc6ccccc6c5)c4)ccc3c2)ccn1 [Compound 182]	> 501 nM	100 to 500 nM
NCc1ccccc1CNC(=O)c1cccc(Cn2ccc3cc(-c4ccnc(N)c4)ccc3c2=O)c1 [Compound 183]	101 to 500 nM	10 to 100 nM
Nc1cc(-c2ccc3c(=O)n(Cc4cccc(C(=O)NCCc5ccccc5)c4)ccc3c2)ccn1 [Compound 185]	101 to 500 nM	10 to 100 nM
Nc1cc(-c2ccc3c(=O)n(Cc4cccc(C(=O)Nc5ccc6c(c5)CCOC6)c4)ccc3c2)ccn1 [Compound 196]	101 to 500 nM	10 to 100 nM
Nc1cc(-c2ccc3c(=O)n(Cc4cccc(C(=O)Nc5ccc6c(c5)COCC6)c4)ccc3c2)ccn1 [Compound 197]	11 to 100 nM	10 to 100 nM
Nc1cc(-c2ccc3c(=O)n(Cc4cccc(C(=O)Nc5ncc[nH]5)c4)ccc3c2)ccn1 [Compound 199]	> 501 nM	100 to 500 nM
Cn1ccc(NC(=O)c2cc(F)cc(Cn3ccc4cc(-c5ccnc(N)c5)ccc4c3=O)c2)n1 [Compound 201]	11 to 100 nM	< 10 nM
Nc1cc(-c2ccc3c(=O)n(Cc4cc(F)cc(C(=O)NC5COC5)c4)ccc3c2)ccn1 [Compound 202]	> 501 nM	100 to 500 nM
Nc1cc(-c2ccc3c(=O)n(Cc4cc(F)cc(C(=O)Nc5ccon5)c4)ccc3c2)ccn1 [Compound 205]	> 501 nM	100 to 500 nM
O=C(NC1COC1)c1cccc(Cn2ccc3cc(N4CCOCC4)ccc3c2=O)c1 [Compound 207]	11 to 100 nM	100 to 500 nM
O=C(NC1COC1)c1cc(F)cc(Cn2ccc3cc(N4CCOCC4)ccc3c2=O)c1 [Compound 208]	> 501 nM	100 to 500 nM
O=C(N[C@H]1C[C@@H](O)C1)c1cc(F)cc(Cn2ccc3cc(N4CCOCC4)ccc3c2=O)c1 [Compound 209]	> 501 nM	100 to 500 nM
O=C(N[C@H]1C[C@H](O)C1)c1cc(F)cc(Cn2ccc3cc(N4CCOCC4)ccc3c2=O)c1 [Compound 210]	> 501 nM	100 to 500 nM
O=C(NC1CCOCC1)c1cc(F)cc(Cn2ccc3cc(N4CCOCC4)ccc3c2=O)c1 [Compound 211]	> 501 nM	100 to 500 nM
O=C(NC1CCOCC1)c1cccc(Cn2ccc3cc(N4CCOCC4)ccc3c2=O)c1 [Compound 212]	> 501 nM	100 to 500 nM
O=C(N[C@H]1CC[C@H](O)CC1)c1cccc(Cn2ccc3cc(N4CCOCC4)ccc3c2=O)c1 [Compound 213]	> 501 nM	100 to 500 nM
O=C(N[C@H]1CC[C@@H](O)CC1)c1cccc(Cn2ccc3cc(N4CCOCC4)ccc3c2=O)c1 [Compound 214]	> 501 nM	100 to 500 nM
O=C(N[C@H]1CC[C@@H](O)CC1)c1cc(F)cc(Cn2ccc3cc(N4CCOCC4)ccc3c2=O)c1 [Compound 215]	> 501 nM	100 to 500 nM
O=C(NCCN1CCOCC1)c1cccc(Cn2ccc3cc(N4CCOCC4)ccc3c2=O)c1 [Compound 216]	101 to 500 nM	100 to 500 nM
O=C(NCC1CCN(CC(F)(F)F)CC1)c1cc(F)cc(Cn2ccc3cc(N4CCOCC4)ccc3c2=O)c1 [Compound 221]	101 to 500 nM	10 to 100 nM
CC(C)N1CCC(CNC(=O)c2cc(F)cc(Cn3ccc4cc(N5CCOCC5)ccc4c3=O)c2)CC1 [Compound 224]	101 to 500 nM	10 to 100 nM
O=C(NCC1CCN(C2CC2)CC1)c1cc(F)cc(Cn2ccc3cc(N4CCOCC4)ccc3c2=O)c1 [Compound 226]	101 to 500 nM	10 to 100 nM

Now from value to compound:

IC50 [1]	IC50 [2]	SMILES
101 to 500 nM	10 to 100 nM	Cn1nccc1-c1ccc2c(=O)n(Cc3cc(F)cc(C(=O)N[C@H]4CC[C@H](O)CC4)c3)ccc2c1 [Compound 164]
101 to 500 nM	10 to 100 nM	Cn1nccc1-c1ccc2c(=O)n(Cc3cc(F)cc(C(=O)NC4CCOCC4)c3)ccc2c1 [Compound 166]
11 to 100 nM	< 10 nM	Cn1nccc1-c1ccc2c(=O)n(Cc3cccc(C(=O)NCC4CC(O)C4)c3)ccc2c1 (stereo not shown) [Compound 167]
< 10 nM	< 10 nM	CN1CC(CNC(=O)c2cccc(Cn3ccc4cc(-c5ccnn5C)ccc4c3=O)c2)C1 [Compound 168]
< 10 nM	< 10 nM	Cn1nccc1-c1ccc2c(=O)n(Cc3cccc(C(=O)NCC4CCNCC4)c3)ccc2c1 [Compound 169]
11 to 100 nM	< 10 nM	Cn1nccc1-c1ccc2c(=O)n(Cc3cccc(C(=O)NCC4CCN(CC(F)F)CC4)c3)ccc2c1 [Compound 170]
11 to 100 nM	< 10 nM	CN1CCC(CNC(=O)c2cccc(Cn3ccc4cc(-c5ccnn5C)ccc4c3=O)c2)CC1 [Compound 171]
11 to 100 nM	< 10 nM	CN1CCC(CNC(=O)c2cc(F)cc(Cn3ccc4cc(-c5ccnn5C)ccc4c3=O)c2)CC1 [Compound 172]
11 to 100 nM	< 10 nM	Cn1nccc1-c1ccc2c(=O)n(Cc3cc(F)cc(C(=O)NCC4CCNCC4)c3)ccc2c1 [Compound 173]
11 to 100 nM	< 10 nM	Cn1nccc1-c1ccc2c(=O)n(Cc3cc(F)cc(C(=O)NCc4ccc(F)nc4)c3)ccc2c1 [Compound 174]
101 to 500 nM	10 to 100 nM	CC(C)N1CCC(NC(=O)c2cc(F)cc(Cn3ccc4cc(-c5ccnn5C)ccc4c3=O)c2)CC1 [Compound 175]
11 to 100 nM	10 to 100 nM	CN1CCC(NC(=O)c2cc(F)cc(Cn3ccc4cc(-c5ccnn5C)ccc4c3=O)c2)CC1 [Compound 176]
11 to 100 nM	< 10 nM	Cn1nccc1-c1ccc2c(=O)n(Cc3cc(F)cc(C(=O)NC4CCNCC4)c3)ccc2c1 [Compound 177]
11 to 100 nM	< 10 nM	Cn1ccc(NC(=O)c2cc(F)cc(Cn3ccc4cc(-c5ccnn5C)ccc4c3=O)c2)n1 [Compound 179]
101 to 500 nM	10 to 100 nM	Nc1cc(-c2ccc3c(=O)n(Cc4cccc(C(=O)NCc5ccccc5)c4)ccc3c2)ccn1 [Compound 181]
11 to 100 nM	< 10 nM	Nc1cc(-c2ccc3c(=O)n(Cc4cccc(C(=O)Nc5ccc6c(c5)CNCC6)c4)ccc3c2)ccn1 [Compound 187]
< 10 nM	< 10 nM	CN1CCc2cc(NC(=O)c3cccc(Cn4ccc5cc(-c6ccnc(N)c6)ccc5c4=O)c3)ccc2C1 [Compound 189]

IC50 [1]	IC50 [2]	SMILES
< 10 nM	< 10 nM	Nc1cc(-c2ccc3c(=O)n(Cc4cccc(C(=O)Nc5nc6c(s5)CNCC6)c4)ccc3c2)ccn1 [Compound 190]
11 to 100 nM	10 to 100 nM	Nc1cc(-c2ccc3c(=O)n(Cc4cccc(C(=O)N[C@H]5CC[C@@H](O)CC5)c4)ccc3c2)ccn1 [Compound 192]
101 to 500 nM	10 to 100 nM	Nc1cc(-c2ccc3c(=O)n(Cc4cccc(C(=O)N[C@H]5CC[C@H](O)CC5)c4)ccc3c2)ccn1 [Compound 193]
101 to 500 nM	10 to 100 nM	Nc1cc(-c2ccc3c(=O)n(Cc4cccc(C(=O)NC5CCOCC5)c4)ccc3c2)ccn1 [Compound 194]
101 to 500 nM	10 to 100 nM	Nc1cc(-c2ccc3c(=O)n(Cc4cccc(C(=O)NC5COC5)c4)ccc3c2)ccn1 [Compound 195]
> 501 nM	100 to 500 nM	Nc1cc(-c2ccc3c(=O)n(Cc4cccc(C(=O)NC5CCCC5)c4)ccc3c2)ccn1 [Compound 198]
> 501 nM	100 to 500 nM	Nc1cc(-c2ccc3c(=O)n(Cc4cccc(C(=O)Nc5ccno5)c4)ccc3c2)ccn1 [Compound 203]
> 501 nM	100 to 500 nM	Nc1cc(-c2ccc3c(=O)n(Cc4cccc(C(=O)Nc5ccon5)c4)ccc3c2)ccn1 [Compound 204]
> 501 nM	> 500 nM	O=C(Nc1ccno1)c1cccc(Cn2ccc3cc(N4CCOCC4)ccc3c2=O)c1 [Compound 206]
101 to 500 nM	10 to 100 nM	O=C(NCC1CCNCC1)c1cccc(Cn2ccc3cc(N4CCOCC4)ccc3c2=O)c1 [Compound 217]
101 to 500 nM	10 to 100 nM	CN1CCC(CNC(=O)c2cccc(Cn3ccc4cc(N5CCOCC5)ccc4c3=O)c2)CC1 [Compound 218]
101 to 500 nM	10 to 100 nM	O=C(NCC1CCN(CC(F)F)CC1)c1cccc(Cn2ccc3cc(N4CCOCC4)ccc3c2=O)c1 [Compound 219]
101 to 500 nM	10 to 100 nM	O=C(NCC1CCN(CC(F)(F)F)CC1)c1cccc(Cn2ccc3cc(N4CCOCC4)ccc3c2=O)c1 [Compound 220]
101 to 500 nM	10 to 100 nM	CN1CCC(CNC(=O)c2cc(F)cc(Cn3ccc4cc(N5CCOCC5)ccc4c3=O)c2)CC1 [Compound 222]
101 to 500 nM	10 to 100 nM	CC(C)N1CCC(CNC(=O)c2cccc(Cn3ccc4cc(N5CCOCC5)ccc4c3=O)c2)CC1 [Compound 223]
101 to 500 nM	10 to 100 nM	O=C(NCC1CCN(C2CC2)CC1)c1cccc(Cn2ccc3cc(N4CCOCC4)ccc3c2=O)c1 [Compound 225]
101 to 500 nM	10 to 100 nM	O=C(NCC1CCN(C2COC2)CC1)c1cccc(Cn2ccc3cc(N4CCOCC4)ccc3c2=O)c1 [Compound 227]

— patent publication US12064426B2, “Selective inhibitors of ROCK1 and ROCK2 protein kinases and uses thereof” (GENOSCO Inc., priority 2021, dated 2024)
